According to patent US8829010B2, “Pyrazolo[3,4-d]pyrimidine compounds and their use as PDE2 inhibitors and/or CYP3A4 inhibitors” (Pfizer Inc., priority 2011, dated 2014):
Several values for one entry are separate records, joined by “and”; a condition that tells them apart may be missing. Equal values may be shown once. Read-outs that look alike come from different tables or passages of the source.

Experiments:
[1] = target: T1, human full-length PDE2A3 enzyme (Homo sapiens (Human), UniProt O00408); assay: Recombinant human PDE2A3 inhibition by [3H]-cGMP scintillation proximity assay (SPA); assay type: biochemical
T1 sequence (O00408 whole entry): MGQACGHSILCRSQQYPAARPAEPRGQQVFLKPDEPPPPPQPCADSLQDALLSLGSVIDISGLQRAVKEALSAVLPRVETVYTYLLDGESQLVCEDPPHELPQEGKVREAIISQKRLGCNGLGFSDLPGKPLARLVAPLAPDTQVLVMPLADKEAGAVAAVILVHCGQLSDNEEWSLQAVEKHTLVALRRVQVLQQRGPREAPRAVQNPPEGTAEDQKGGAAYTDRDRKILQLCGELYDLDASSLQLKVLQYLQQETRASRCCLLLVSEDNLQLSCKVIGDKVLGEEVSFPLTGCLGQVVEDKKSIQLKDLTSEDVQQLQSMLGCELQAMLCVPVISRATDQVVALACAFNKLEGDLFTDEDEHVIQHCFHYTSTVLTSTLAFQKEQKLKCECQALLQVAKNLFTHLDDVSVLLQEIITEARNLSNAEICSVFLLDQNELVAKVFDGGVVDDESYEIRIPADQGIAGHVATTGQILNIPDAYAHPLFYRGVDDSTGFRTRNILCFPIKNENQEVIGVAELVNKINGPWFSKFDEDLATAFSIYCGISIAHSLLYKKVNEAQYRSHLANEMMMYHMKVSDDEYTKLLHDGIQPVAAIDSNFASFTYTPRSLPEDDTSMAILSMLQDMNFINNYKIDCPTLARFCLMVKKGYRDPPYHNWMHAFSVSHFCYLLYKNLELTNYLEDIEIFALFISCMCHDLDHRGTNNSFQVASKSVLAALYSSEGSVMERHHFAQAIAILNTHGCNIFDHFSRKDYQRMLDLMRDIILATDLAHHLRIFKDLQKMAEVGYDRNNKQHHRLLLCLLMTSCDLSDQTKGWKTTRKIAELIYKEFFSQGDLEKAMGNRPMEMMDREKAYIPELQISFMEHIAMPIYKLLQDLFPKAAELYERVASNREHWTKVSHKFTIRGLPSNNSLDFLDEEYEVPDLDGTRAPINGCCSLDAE

[2] = target: T1, human full-length PDE2A3 enzyme; conditions: literature values; IC50 values obtained were within 3× of these; read-out: PDE2 IC50, literature values of control compounds; cited from earlier work
[3] = target: CYP3A4 (Homo sapiens (Human), UniProt P08684); assay: biochemical
Chain of CYP3A4 (P08684 whole entry): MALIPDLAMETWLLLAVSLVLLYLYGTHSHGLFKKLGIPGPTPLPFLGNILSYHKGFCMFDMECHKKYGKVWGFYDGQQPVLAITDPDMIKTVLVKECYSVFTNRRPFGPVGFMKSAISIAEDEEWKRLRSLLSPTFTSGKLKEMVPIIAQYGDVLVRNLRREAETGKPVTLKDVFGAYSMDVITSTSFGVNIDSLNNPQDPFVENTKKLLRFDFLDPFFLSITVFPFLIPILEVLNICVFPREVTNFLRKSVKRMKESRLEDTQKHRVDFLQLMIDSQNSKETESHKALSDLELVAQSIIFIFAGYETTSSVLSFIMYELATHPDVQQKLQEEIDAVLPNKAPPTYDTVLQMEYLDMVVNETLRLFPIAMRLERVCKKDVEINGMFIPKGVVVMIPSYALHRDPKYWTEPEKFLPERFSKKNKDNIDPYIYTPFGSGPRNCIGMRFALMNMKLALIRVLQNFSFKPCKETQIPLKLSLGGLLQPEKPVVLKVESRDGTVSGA

[4] = target: CYP3A5 (Homo sapiens (Human), UniProt P20815); assay: biochemical
Chain of CYP3A5 (P20815 whole entry): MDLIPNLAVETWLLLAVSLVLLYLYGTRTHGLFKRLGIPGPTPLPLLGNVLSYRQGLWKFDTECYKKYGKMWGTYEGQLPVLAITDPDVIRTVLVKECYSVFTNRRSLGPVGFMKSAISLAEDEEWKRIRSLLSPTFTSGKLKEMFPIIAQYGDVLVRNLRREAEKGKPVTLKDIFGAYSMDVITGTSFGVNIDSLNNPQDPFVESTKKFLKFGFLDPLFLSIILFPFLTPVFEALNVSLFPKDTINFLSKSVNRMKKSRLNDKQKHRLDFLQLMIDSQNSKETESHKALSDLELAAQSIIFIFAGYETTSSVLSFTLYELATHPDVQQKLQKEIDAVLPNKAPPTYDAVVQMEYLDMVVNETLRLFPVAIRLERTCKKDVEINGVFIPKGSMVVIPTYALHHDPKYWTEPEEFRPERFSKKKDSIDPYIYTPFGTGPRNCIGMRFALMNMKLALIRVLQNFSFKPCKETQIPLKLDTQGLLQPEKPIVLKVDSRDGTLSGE

[5] = target: CYP3A4 versus CYP3A5 (Homo sapiens (Human), UniProt P08684); assay: in vitro
Chain of CYP3A4 versus CYP3A5 (P08684 whole entry): as the sequence (P08684 whole entry) above

[6] = Geometric mean of 2-5 determinations unless otherwise indicated (a: single determination; b: 7-8 determinations)

Compound	IC50 [3]	IC50 [4]	IC50 [1, 6] [µM]	other results
3-[5-(4-chloro-3- fluorophenyl)-1- methyl-1H-pyrazol- 4-yl]-1-methyl-4-[3- (1-methyl-1H- pyrazol-3- yl)azetidin-1-yl]-1H- pyrazolo[3,4- d]pyrimidine [Example 19]	–	–	–	IC50 [1]: < 0.00287 µM
CCCCCC[C@@H]([C@@H](C)O)n1cnc2c(N)ncnc21 (racemic) [EHNA, erythro-9-(2-hydroxy-3-nonyl) adenine]	–	–	–	IC50 [2]: 1.7 µM
Cc1ccc(-c2c(-c3nn(C)c4ncnc(N5CC[C@H](N6CCCCC6)C5)c34)cnn2C)cc1 [Example 2, 1-Methyl-3-[1-methyl-5-(4-methylphenyl)-1H-pyrazol-4-yl]-4-[(3S)-3-(piperidin-1-yl)pyrrolidin-1-yl]-1H-pyrazolo[3,4-d]pyrimidine]	0.0653 µM and 0.122 µM	9.69 µM	–	–
Cn1ncc(-c2nn(C)c3ncnc(N4CC(F)C4)c23)c1-c1ccc(C2CC2)cc1 [Example 3, 3-[5-(4-Cyclopropylphenyl)-1-methyl-1H-pyrazol-4-yl]-4-(3-fluoroazetidin-1-yl)-1-methyl-1H-pyrazolo[3,4-d]pyrimidine]	–	–	< 0.00131	–
COC(=O)NC1CN(c2ncnc3c2c(-c2cnn(C)c2-c2ccc(C4CC4)cc2)nn3C)C1 [Example 23, methyl (1-{3-[5-(4-cyclopropylphenyl)-1-methyl-1H-pyrazol-4-yl]-1-methyl-1H-pyrazolo[3,4-d]pyrimidin-4-yl}azetidin-3-yl)carbamate]	–	–	< 0.00211	–
CCc1ccc(-c2c(-c3nn(C)c4ncnc(N5CC[C@H](N6CCCCC6)C5)c34)cnn2C)cc1 [Example 56, 3-[5-(4-ethylphenyl)-1-methyl-1H-pyrazol-4-yl]-1-methyl-4-[(3S)-3-(piperidin-1-yl)pyrrolidin-1-yl]-1H-pyrazolo[3,4-d]pyrimidine]	0.0397 µM and 0.0711 µM	3.47 µM and 6.96 µM	–	inhibition at 0.316 µM ([1]; at 316 nM, single determination): 41%; selectivity ratio ([5]; probe midazolam): 87; selectivity ratio ([5]; probe testosterone): 98
